{
  "source": "patent US9328369B2",
  "about": "“Process for production of useful substance, and surfactant for use in the process” (priority 2009, dated 2016)",
  "tested_on": "Escherichia coli(ε)",
  "test": "Production by secretion in microbial culture system, protease expressing strain (Table 5)",
  "assay_type": "cell-based",
  "conditions": "Example 12, surfactant 1 wt %",
  "description": "A subtilisin Carlsberg gene of a Bacillus licheniformis was amplified by the PCR method using primers 7 and 8 (Table 4). After being treated with restriction enzymes NcoI and BamHI, a PCR amplified fragment was bound to an NcoI restriction enzyme site and a BamHI restriction enzyme site of a pET-22b plasmid (product of Novagen). Then, the plasmid was transformed into a BL21 (DE3) Escherichia coli strain (product of Novagen) to form Escherichia coli (ε) that expresses protease.\nOvernight cultures (1 ml) of Escherichia coli (δ) obtained in Production Example 4 and Escherichia coli (ε) obtained in Production Example 5 were respectively prepared as Comparative Example 2 and Comparative Example 4. An amount of 0.5 ml of each was inoculated in 5 ml of an LB culture solution (containing 100 mg/L of ampicillin) and was shake-cultured at 30° C. for 3 hours. In this manner, pre-culture solutions were prepared. […] The whole protein in the culture solution was analyzed by SDS-PAGE. Based on the obtained amount of the protein band, the recombinant protein was quantified.\nPerformance of this processes for several times clarified the proportional relationship between the turbidity of the culture solution and the dried cell density. Therefore, the dried cell density was obtained from the measured turbidity in each of Comparative Examples 2 to 4 and Examples 2 to 14. […]",
  "data": [
    {"substance": "Cured palm oil fatty acid amidopropyl dimethyl aminoacetate betaine [A-6]", "values": [
      {"measurement": "Turbidity", "value": 95},
      {"measurement": "Dried cell density", "setting": "obtained from turbidity", "value": 26.6, "unit": "g/L"},
      {"measurement": "Quantitative value of produced recombinant protein", "setting": "supernatant, SDS-PAGE", "value": 0.37, "unit": "g/L"}
    ]}
  ]
}
